Results: patent US5066674A, “Carbamate inhibitors of cholesterol esterase and their use as hypolipidemic and hypocaloric agents” (University of Iowa Research Foundation, priority 1990, dated 1991)

Target: Pancreatic cholesterol esterase (CEase)
Experiment: CEase-catalyzed hydrolysis of p-nitrophenylbutyrate (PNPB), irreversible inhibition timecourse
Type: biochemical
Settings: for Second-order inhibition rate constant ki/Ki: PNPB substrate, 25.0 °C, pH 7.3, 0.1M sodium phosphate, 0.1N NaCl, 1 mM Triton X100; for t1/2, half-life of irreversible inhibition: in presence of 10^-5 M inhibitor, calculated t1/2 = ln(2)/(ki[I])
Protocol: The CEase-catalyzed hydrolysis of the water-soluble substrate p-nitrophenylbutyrate (PNPB) is the reaction that was routinely used to characterize irreversible inhibitors. The reaction is followed at 25.0±0.1° C. and pH 7.3 in 0.1M sodium phosphate buffer that contains 0.1N NaCl, 1 mM Triton X100, and the appropriate concentrations of CEase and PNPB. Characterization of inhibitors occurs in three steps: First, inhibitor is added to CEase and the percent activity of the enzyme is measured as a function of time. A corresponding control (contains no inhibitor) measures the 100% activity level. Secondly, the pseudo-first order inhibition rate constant is calculated from the activity versus time data.
%A=(%AO -%Ainf)e^-kt +%Ainf (1)
The pseudofirst order inhibition rate constant is plotted versus [I]. If the plot is linear, the second-order inhibition rate constant, ki /Ki, is the slope of a linear-leastsquares fit of the plot. And, thirdly, if plot is nonlinear and hyperbolic, the following inhibition mechanism is indicated: [drawing 5] In this mechanism, the inhibitor first forms a reversible, noncovalent complex, EI, with the enzyme. An enzymic nucleophile, presumably the active site serine (cf. Scheme I) then attacks the carbonyl carbon of the carbamate functionality of the inhibitor, with subsequent expulsion of the aromatic leaving group. For the above mechanism, the dependence of k on [I] is described by the following equation: [formula] […] From this fit the maximum first-order inhibition rate constant (ki) and the dissociation constant of EI (Ki) were determined, and consequently ki /Ki could be calculated.

| Structure (SMILES) | Second-order inhibition rate constant ki/Ki [M⁻¹ s⁻¹] | t1/2, half-life of irreversible inhibition [min] | Irreversible inhibition of CEase (statement in words) (comparison of second-order inhibition rate constants of Table I) |
| --- | --- | --- | --- |
| CCCCCNC(=O)Oc1ccc(NC(C)=O)cc1 [p-Acetamidophenyl n-Pentyl Carbamate] | 100 | 11.6 |  |
| CCCCCCCCNC(=O)Oc1ccc2ccccc2c1 [2-Naphthyl n-Octyl Carbamate] | 1350 | 0.86 | most potent irreversible carbamate inhibitor of CEase |
| CCCCCCNC(=O)Oc1ccc(NC(C)=O)cc1 [p-Acetamidophenyl n-Hexyl Carbamate] | 493 | 2.3 |  |
| CCCCCCCCNC(=O)Oc1ccc(NC(C)=O)cc1 [p-Acetamidophenyl n-Octyl Carbamate] | 100 | 11.6 |  |
| CCCCNC(=O)Oc1ccc(NC(C)=O)cc1 [p-Acetamidophenyl n-Butyl Carbamate] | 40 | 29 |  |
